According to patent EP1980559A1, “Cardiovascular agents” (CTG Pharma S.r.l., priority 2007, dated 2008):

Experiments:
NAD(P)H oxidases [1] = assay: NAD(P)H oxidases inhibition: superoxide (O2^-) release by ferricytochrome c reduction in PAVSMCs; type: cell-based, porcine; conditions: PAVSMCs stimulated with LPS, TNFα and IL1α; 100 nM; 16 hours incubation
Description: (§1) The method described by Muzaffar S, Shukla N, Angelini GD, Jeremy JY; "Prednisolone augments superoxide formation in porcine pulmonary artery endothelial cells through differential effects on the expression of nitric oxide synthase and NADPH oxidase" in Br. J. Pharmacol. 2005 Ju1;145(5):688-97 was used.
(§2) Briefly lungs were obtained from male pigs of body weight ranging from 20 - 35 kg. Pulmonary arteries (PA) of between 3-4 mm diameter were dissected from the lungs within 30 minutes and placed in Dulbecco's Minimum Essential Medium (DMEM). The arteries were then cut into 2 mm segments for preparation of cell cultures. PAECs were grown in Endothelial Cell Growth Medium at 37°C in a 95% air-5% CO2 incubator. The measurement of superoxide (O2^-) release by cells was performed by detection of ferricytochrome c reduction.
(§3) The reduction of cytochrome c that was inhibitable with SOD reflected actual O2^- release. PAVSMCs and PAECS were seeded and incubated with the TXA2 analogue, U46619, isoprostane F2α,LPS (endotoxin) human recombinant IL-1α and human recombinant TNF-α, alone or with drugs for 16 hours. RESULTS
(§4) LPS, IL-1α, TNF-α and U46619 all promoted the formation of O2^- in both porcine pulmonary artery VSMCs (PAVSMCs) and endothelial cells (PAECS) compared to untreated controls following a 16 hour incubation. […]

NAD(P)H oxidases [2] = assay: NAD(P)H oxidases inhibition: superoxide (O2^-) release by ferricytochrome c reduction in PAECs; type: cell-based, porcine; conditions: PAECs stimulated with LPS, TNFα and IL1α; 100 nM; 16 hours incubation
Description: as §1, §2, §3, §4

[3] = system: isolated rabbit thoracic aorta preparations; assay: Study on vascular tone: vasorelaxation in isolated rabbit thoracic aorta preparations; conditions: aorta rings contracted submaximally with noradrenaline (1 µM); concentration-response curve
Description: The ability of ARB derivatives to induce vasorelaxation in comparison to native ARB, was tested in vitro in isolated rabbit thoracic aorta preparations (Wanstall J. C. et al., Br. J. Pharmacol., 134:463-472, 2001). Male New Zealand rabbits were anaesthetized with thiopental-Na (50 mg/kg, iv), sacrificed by exsanguinations and then the thorax was opened and the aorta dissected.
Single ring preparations (4 mm in length) of thoracic aorta were set up in physiological salt solution at 37 °C in small organ chambers (5 ml). Each ring was mounted under 2g passive tension in 5 ml organ bath. Preparations were allowed to equilibrate for 1 h, then contracted submaximally with noradrenaline (NA, 1 µM) and, when the contraction was stable, acetylcholine (ACh, 10 µM) was added.
A relaxant response to ACh indicated the presence of a functional endothelium.

[4] = system: spontaneously hypertensive rats (SHRs); assay: Antihypertensive activity in vivo: systolic blood pressure by telemetry in conscious SHRs; conditions: daily oral dose for 3 days, losartan 10 mg/kg po or equimolar dose; for Systolic blood pressure (SBP) 1 hr: 1 hr after dosing; for Systolic blood pressure (SBP) 12 hr: 12 hr after dosing; for Systolic blood pressure (SBP) 24 hr: 24 hr after dosing
Description: The ability of compound of example 1 to decrease blood pressure was evaluated in conscious spontaneously hypertensive rats (SHRs).
Three groups of SHRs (250-300g) received daily oral dose of losartan (10 mg/kg po) or compound of example 1 (equimolar dose) or vehicle (SHR control group) for 3 days. Systolic blood pressure (SBP) and heart rate were monitored by telemetry at different time points after dosing. The SBP was measured at baseline and after 1 hour, 12 hours and 24 hours.

SMILES | formation of O2^- (NAD(P)H oxidases [1]) | formation of O2^- (NAD(P)H oxidases [2]) | relaxation [3] | Systolic blood pressure (SBP) 1 hr [4] [mm Hg] | Systolic blood pressure (SBP) 12 hr [4] [mm Hg] | Systolic blood pressure (SBP) 24 hr [4] [mm Hg] | Systolic blood pressure (SBP) Baseline [4] [mm Hg]
CCCCc1nc(Cl)c(CO)n1Cc1ccc(-c2ccccc2-c2nn[nH]n2)cc1 [Losartan, losartan] | no significant effect | no significant effect | did not produce relaxation at any of the concentration tested | 135 | 134 | 135 | 143
CCCCc1nc(Cl)c(COC(=O)c2ccc(-c3cssc3=S)cc2)n1Cc1ccc(-c2ccccc2-c2nn[nH]n2)cc1 [Cpd EX.1, 4-(3-thioxo-3H-1,2-dithiol-4-yl)benzoic acid 2-butyl-4-chloro-1-[p-(o-1H-tetrazol-5-ylphenyl)-benzyl]imidazole-5-methyl ester] |  |  |  | 120 | 121 | 122 | 145
